{"source": "patent US20200261427A1", "about": "(Al Therapeutics, Inc., priority 2019, published 2020)", "key": {"[1]": {"experiment": "Solubility screening by gravimetric analysis", "type": "physicochemical", "experimental": "Solubility screening was performed by gravimetric analysis. In a glass vial, known amounts of API were added to a known amount of solvent and the sample was rotated with a vial rotator (VWR) at room temperature. If the API completely dissolved, an additional known amount was added. The samples were rotated for at least 48 hours after the last API addition before determining the gravimetric result (i.e., greater than a % w/w or less than a % w/w)."}, "[2]": {"experiment": "Antioxidant screen in Transcutol", "type": "physicochemical", "experimental": "Since there was significant degradation in diethylene glycol monoethyl ether (TC) after 1 week, and TC can generate peroxides, it was selected as the solvent for the antioxidant screen. […] (1) No antioxidant; […] […] The 4-week data at 40° C. was used to calculate the main effects of the two antioxidants and their interaction (Box et al., 1978) for the assay values. The positive effect of BHA (+23.8) was twice the positive effect of Vit. E (+11.6)."}, "[3]": {"experiment": "pH stability screen of rapamycin in 1:1 ethanol:water", "type": "physicochemical", "conditions": "0.1 mg/mL in 1:1 ethanol:water, pH 3, 5, unbuffered; 1 week at 5, 25, 40° C. (FIG. 2)", "experimental": "20 mM citrate buffers were prepared at pH 3, 5 and 7. With the exception of the pH 7 buffer, these buffers were miscible in 50% ethanol. Rather than reduce the buffer concentration to obtain a higher pH, the third solution was prepared with unbuffered water. An Orion 710A+ pH meter with a Thermo Scientific electrode was used for pH measurement."}, "[4]": {"experiment": "Stability of rapamycin in solvents PG, TC, DMI", "type": "physicochemical", "conditions": "0.2% w/w in DMI, 1 week at 5, 25, 40° C. (FIG. 3)"}, "[5]": {"experiment": "Microscopic examination of rapamycin crystal growth", "conditions": "rectangular crystals in gels showing crystal growth"}, "[6]": {"experiment": "physchem", "conditions": "thermodynamic from solid", "quoted_text": "(§1) All solutions were buffered with 5 mM citrate buffer at pH 4.5."}, "[7]": {"experiment": "Saturation solubility in solvents and 10% co-solvent aqueous solutions", "quoted_text": "as §1"}}}
{"smiles": "CO[C@H]1C[C@@H]2CC[C@@H](C)[C@@](O)(O2)C(=O)C(=O)N2CCCC[C@H]2C(=O)O[C@H]([C@H](C)C[C@@H]2CC[C@@H](O)[C@H](OC)C2)CC(=O)[C@H](C)/C=C(\\C)[C@@H](O)[C@@H](OC)C(=O)[C@H](C)C[C@H](C)/C=C/C=C/C=C/1C", "note": "[Rapamycin, rapamycin]", "values": [{"measurement": "Rapamycin solubility % w/w", "setting": "[1]; Diethylene glycol monoethyl ether (TC)", "value": ">13", "unit": "% w/w"}, {"measurement": "Rapamycin solubility % w/w", "setting": "[1]; Diisopropyl adipate", "value": "<1.0", "unit": "% w/w"}, {"measurement": "Rapamycin solubility % w/w", "setting": "[1]; Dimethyl isosorbide (DMI)", "value": ">7", "unit": "% w/w"}, {"measurement": "Rapamycin solubility % w/w", "setting": "[1]; Hexylene glycol", "value": "<1.0", "unit": "% w/w"}, {"measurement": "Rapamycin solubility % w/w", "setting": "[1]; Isopropyl myristate", "value": "<0.1", "unit": "% w/w"}, {"measurement": "Rapamycin solubility % w/w", "setting": "[1]; Light mineral oil", "value": "<0.3", "unit": "% w/w"}, {"measurement": "Rapamycin solubility % w/w", "setting": "[1]; Medium chain triglycerides", "value": "<0.1", "unit": "% w/w"}, {"measurement": "Rapamycin solubility % w/w", "setting": "[1]; Octyldodecanol", "value": "<1.0", "unit": "% w/w"}, {"measurement": "Rapamycin solubility % w/w", "setting": "[1]; PEG 400", "value": "<1.5", "unit": "% w/w"}, {"measurement": "Rapamycin solubility % w/w", "setting": "[1]; Propylene glycol (PG), room temperature", "value": "<0.75", "unit": "% w/w"}, {"measurement": "Rapamycin Assay (% of Initial)", "setting": "[2]; 0.002% Vit. E, 25° C., week 1", "value": "98.3 % of Initial"}, {"measurement": "Rapamycin Assay (% of Initial)", "setting": "[2]; 0.002% Vit. E, 25° C., week 4", "value": "98.2 % of Initial"}, {"measurement": "Rapamycin Assay (% of Initial)", "setting": "[2]; 0.002% Vit. E, 40° C., week 1", "value": "96.8 % of Initial"}, {"measurement": "Rapamycin Assay (% of Initial)", "setting": "[2]; 0.002% Vit. E, 40° C., week 2", "value": "97.0 % of Initial"}, {"measurement": "Rapamycin Assay (% of Initial)", "setting": "[2]; 0.002% Vit. E, 40° C., week 4", "value": "82.2 % of Initial"}, {"measurement": "Rapamycin Assay (% of Initial)", "setting": "[2]; 0.01% BHA, 25° C., week 1", "value": "99.2 % of Initial"}, {"measurement": "Rapamycin Assay (% of Initial)", "setting": "[2]; 0.01% BHA, 25° C., week 4", "value": "98.3 % of Initial"}, {"measurement": "Rapamycin Assay (% of Initial)", "setting": "[2]; 0.01% BHA, 40° C., week 1", "value": "97.1 % of Initial"}, {"measurement": "Rapamycin Assay (% of Initial)", "setting": "[2]; 0.01% BHA, 40° C., week 2", "value": "98.1 % of Initial"}, {"measurement": "Rapamycin Assay (% of Initial)", "setting": "[2]; 0.01% BHA, 40° C., week 4", "value": "94.4 % of Initial"}, {"measurement": "Rapamycin Assay (% of Initial)", "setting": "[2]; 0.2% w/w in Transcutol, No Antioxidant, 25° C., week 1", "value": "95.7 % of Initial"}, {"measurement": "Rapamycin Assay (% of Initial)", "setting": "[2]; BHA + Vit. E, 25° C., week 1", "value": "98.8 % of Initial"}, {"measurement": "Rapamycin Assay (% of Initial)", "setting": "[2]; BHA + Vit. E, 25° C., week 4", "value": "98.7 % of Initial"}, {"measurement": "Rapamycin Assay (% of Initial)", "setting": "[2]; BHA + Vit. E, 40° C., week 1", "value": "96.9 % of Initial"}, {"measurement": "Rapamycin Assay (% of Initial)", "setting": "[2]; BHA + Vit. E, 40° C., week 2", "value": "98.7 % of Initial"}, {"measurement": "Rapamycin Assay (% of Initial)", "setting": "[2]; BHA + Vit. E, 40° C., week 4", "value": "96.2 % of Initial"}, {"measurement": "Rapamycin Assay (% of Initial)", "setting": "[2]; No Antioxidant, 25° C., week 4", "value": "84.6 % of Initial"}, {"measurement": "Rapamycin Assay (% of Initial)", "setting": "[2]; No Antioxidant, 40° C., week 1", "value": "87.3 % of Initial"}, {"measurement": "Rapamycin Assay (% of Initial)", "setting": "[2]; No Antioxidant, 40° C., week 2", "value": "79.0 % of Initial"}, {"measurement": "Rapamycin Assay (% of Initial)", "setting": "[2]; No Antioxidant, 40° C., week 4", "value": "60.8 % of Initial"}, {"measurement": "rapamycin pH stability", "setting": "[3]", "value": "more stable at an acidic pH"}, {"measurement": "solvent compatibility (solution stability)", "setting": "[4]", "value": "most compatible with propylene glycol (PG) and least compatible with dimethyl isosorbide (DMI)"}, {"measurement": "length of rapamycin crystals grown", "setting": "[5]", "value": "25-100 microns"}, {"measurement": "solubility", "setting": "[6]; 10% TC and 10% DMI aqueous solutions versus water, pH 4.5, aqueous with cosolvent or surfactant or cyclodextrin", "value": "1.5 to 2", "unit": "µg/mL"}, {"measurement": "solubility", "setting": "[6]; 10% propylene glycol (PG) aqueous solution, citrate buffered, pH 4.5, aqueous with cosolvent or surfactant or cyclodextrin", "value": 2.9, "unit": "µg/mL"}, {"measurement": "solubility", "setting": "[6]; pH 4.5, aqueous with cosolvent or surfactant or cyclodextrin", "value": 5.2, "unit": "µg/mL"}, {"measurement": "solubility", "setting": "[6]; water, citrate buffered, pH 4.5, aqueous buffer", "value": 2.9, "unit": "µg/mL"}, {"measurement": "Rapamycin Solubility", "setting": "[7]; 10% Diethylene Glycol Monoethyl Ether (TC), pH 4.5, 5 mM citrate", "value": 4.6, "unit": "µg/mL"}, {"measurement": "saturation solubility", "setting": "[7]; in TC", "value": 15.5, "unit": "% w/w"}]}
